Source: paper PMC9244950 (ACS Omega, 2022)
pIC50: −log10 of the molar value. In brackets after ≈: the same amount, converted by molar mass.

Columns and labels:
[1] = system: Mtb H37Rv strain; assay: microbe, parasite or virus in culture; assay type: cell-based, Mycobacterium tuberculosis
[2] = In vitro cytotoxicity, THP-1 cell viability after 3 days; assay type: cell-based; conditions: human, THP-1 cells
[3] = molecular target: wild-type InhA (Mycobacterium tuberculosis, UniProt P9WGR1); assay: InhA inhibition assay; assay type: biochemical
[4] = Mtb H37Rv, dual read-out (OD590 and fluorescence)
[5] = Mycobacterium tuberculosis, H37RV
[6] = Mycobacterium tuberculosis, H37RV, Mtb H37Rv, dual read-out (OD590 and fluorescence)

wild-type InhA, sequence (P9WGR1 whole entry, looked up): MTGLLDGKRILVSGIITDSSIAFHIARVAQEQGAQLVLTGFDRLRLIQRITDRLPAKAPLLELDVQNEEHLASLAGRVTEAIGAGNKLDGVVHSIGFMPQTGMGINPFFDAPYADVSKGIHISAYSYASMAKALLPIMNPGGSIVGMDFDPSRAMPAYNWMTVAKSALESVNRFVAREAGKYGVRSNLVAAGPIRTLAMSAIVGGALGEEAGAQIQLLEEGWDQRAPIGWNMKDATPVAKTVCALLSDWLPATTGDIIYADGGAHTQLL

Compound | pIC50 [1, 4] | MIC [1, 4] | MIC [1, 5] | pIC50 [1, 6] | IC50 at 3 days [2] | pIC50 [3]
2-(4-Methyl-2-oxo-2H-chromen-6-yl)isoindoline-1,3-dione [Compound 30] | < 3.70 | > 200 µM | – | – | – | –
O=C1c2ccccc2C(=O)N1c1ccc(F)cc1 [Compound 2, 2-(4-Fluorophenyl)isoindoline-1,3-dione] | – | – | > 200 µM | 3.71 | – | –
Cc1ccccc1N1C(=O)c2ccccc2C1=O [Compound 3, 2-(o-Tolyl)isoindoline-1,3-dione] | – | – | 194 µM (≈ 46 µg/mL) | 4.17 | – | –
O=C1c2ccccc2C(=O)N1c1ccc(F)c(Cl)c1 [Compound 4, 2-(3-Chloro-4-fluorophenyl)isoindoline-1,3-dione] | – | – | 186 µM (≈ 51.3 µg/mL) | 4.19 | – | –
Cc1cccc(N2C(=O)c3ccccc3C2=O)c1 [Compound 5, 2-(m-Tolyl)isoindoline-1,3-dione] | – | – | 100 µM (≈ 23.7 µg/mL) | 4.54 | > 150 µM | –
O=C1c2ccccc2C(=O)N1c1ccc(Cl)cc1 [Compound 6, 2-(4-Chlorophenyl)isoindoline-1,3-dione] | – | – | 94 µM (≈ 24.2 µg/mL) | 4.55 | > 150 µM | –
O=C1c2ccccc2C(=O)N1c1cccc(Cl)c1 [Compound 7, 2-(3-Chlorophenyl)isoindoline-1,3-dione] | – | – | 96 µM (≈ 24.7 µg/mL) | 4.59 | > 150 µM | –
O=C1c2ccccc2C(=O)N1c1ccc(Br)cc1 [Compound 8, 2-(4-Bromophenyl)isoindoline-1,3-dione] | – | – | 102 µM (≈ 30.8 µg/mL) | 4.51 | > 150 µM | –
O=C1c2ccccc2C(=O)N1c1cccc([N+](=O)[O-])c1 [Compound 10, 2-(3-Nitrophenyl)isoindoline-1,3-dione] | – | – | > 200 µM | 3.92 | – | –
O=C(O)CN1C(=O)c2ccccc2C1=O [Compound 11, 2-(1,3-Dioxoisoindolin-2-yl)acetic Acid] | – | – | 164 µM (≈ 33.6 µg/mL) | 4.26 | – | –
Cc1ccnc(N2C(=O)c3ccccc3C2=O)c1 [Compound 12, 2-(4-Methylpyridin-2-yl)isoindoline-1,3-dione] | 3.80 | – | > 200 µM | 3.83 | – | –
Cc1ccc(N2C(=O)c3ccccc3C2=O)nc1 [Compound 13, 2-(5-Methylpyridin-2-yl)isoindoline-1,3-dione] | 3.83 | – | > 200 µM | 3.80 | – | –
O=C1c2ccccc2C(=O)N1c1ccc(Br)cn1 [Compound 14, 2-(5-Bromopyridin-2-yl)isoindoline-1,3-dione] | – | – | > 200 µM | 4.05 | – | –
COc1ccc(-c2nnc(N3C(=O)c4ccccc4C3=O)s2)cc1 [Compound 16, 2-(5-(4-Methoxyphenyl)-1,3,4-thiadiazol-2-yl)isoindoline-1,3-dione] | – | – | 182 µM (≈ 61.4 µg/mL) | 4.21 | – | –
O=C1c2ccccc2C(=O)N1c1nnc(-c2ccccc2)s1 [Compound 19, 2-((5-Phenyl)-1,3,4-thiadiazol-2-yl)isoindoline-1,3-dione] | – | – | > 200 µM | < 3.70 | – | –
O=C(NN1C(=O)c2ccccc2C1=O)c1ccc(O)cc1 [Compound 20, N-(1,3-Dioxoisoindoline-2-yl)-4-hydroxybenzamide] | – | – | > 200 µM | 4.00 | – | –
O=C1c2ccccc2C(=O)N1c1nnc(-c2cccc(Br)c2)s1 [Compound 21, 2-(5-(3-Bromophenyl)-1,3,4-thiadiazol-2-yl)isoindoline-1,3-dione] | – | – | > 200 µM | 4.00 | – | –
COc1ccccc1-c1nnc(N2C(=O)c3ccccc3C2=O)s1 [Compound 22, 2-(5-(2-Methoxyphenyl)-1,3,4-thiadiazol-2-yl)isoindoline-1,3-dione] | – | – | 180 µM (≈ 60.7 µg/mL) | 4.24 | – | –
Cc1cccc(-c2nnc(N3C(=O)c4ccccc4C3=O)s2)c1 [Compound 23, 2-(5-(m-Tolyl)-1,3,4-thiadiazol-2-yl)isoindoline-1,3-dione] | – | – | 123 µM (≈ 39.5 µg/mL) | 4.37 | – | –
O=C1c2ccccc2C(=O)N1c1nnc(Cc2ccccc2)s1 [Compound 24, 2-(5-Benzyl--1,3,4-thiadiazol-2-yl)isoindoline-1,3-dione] | – | – | > 200 µM | < 3.70 | – | –
O=C1c2ccccc2C(=O)N1c1nnc(-c2ccccc2F)s1 [Compound 25, 2-(5-(2-Fluorophenyl)-1,3,4-thiadiazol-2-yl)isoindoline-1,3-dione] | – | – | > 200 µM | 3.88 | – | –
O=C1c2ccccc2C(=O)N1c1nnc(-c2cccc(Cl)c2)s1 [Compound 26, 2-(5-(3-Chlorophenyl)-1,3,4-thiadiazol-2-yl)isoindoline-1,3-dione] | – | – | 192 µM (≈ 65.6 µg/mL) | 4.10 | – | –
O=C1c2ccccc2C(=O)N1c1nnc(-c2ccc(I)cc2)s1 [Compound 27, 2-(5-(4-Iodophenyl)-1,3,4-thiadiazol-2-yl)isoindoline-1,3-dione] | – | – | 64 µM (≈ 27.7 µg/mL) | 4.74 | > 200 µM | 5.06
O=C1c2ccccc2C(=O)N1c1nnc(-c2ccccc2[N+](=O)[O-])s1 [Compound 28, 2-(5-(2-Nitrophenyl)-1,3,4-thiadiazol-2-yl)isoindoline-1,3-dione] | – | – | > 200 µM | 3.77 | – | –
Cc1nnc(N2C(=O)c3ccccc3C2=O)s1 [Compound 29, 2-(5-Methyl-1,3,4-thiadiazol-2-yl)isoindolin-1,3-dione] | – | – | > 200 µM | 4.00 | – | –
NNC(=O)c1ccncc1 [Isoniazid, reference compound] | – | – | 0.38 µM (≈ 0.0521 µg/mL) | 6.82 | – | –
